Experimental data taken from ChEMBL document CHEMBL5441456, “ASAP - SARS-CoV-2 nsp3 macrodomain dose response” (2024).
Where “and” joins values, the source holds several entries; their conditions need not be identical. Equal entries are not always repeated.

The compounds below were run against Replicase polyprotein 1ab (Severe acute respiratory syndrome coronavirus 2, UniProt P0DTD1) (assay: Functional biochemical assay to identify treatments for viral infectious disease that targets SARS-COV-2 nsp3 macrodomain, whereby the mechanism of action displaces an ADP-Ribose modified peptide from the binding site. Utilizing a time-resolved fluorescence method to measure binding by reading the emitted fluorescence intensity in two wavelengths.).

Compound | IC50
O[C@H]1C[C@](CNc2ncnc3[nH]ccc23)(c2ccccc2)C1 | > 124 µM
O=C(OCc1ccc(Cl)nc1)c1ncnc2[nH]ccc12 | > 99.5 µM
Cc1cccc(Cl)c1-n1sc(=O)n(CC2CC2)c1=O | 23 µM
O=C(c1ccccc1)N1CCC(c2ccn3ncc(C(=O)N4CCc5nc[nH]c5C4)c3c2)CC1 | > 99.5 µM
O=C(O)c1cnc(C(=O)N2CCC(c3ccn4ncc(C(=O)N5CCCCC5)c4c3)CC2)cn1 | > 99.5 µM
OC[C@@]1(Cc2ccc(F)cc2)CCN(c2ncnc3[nH]ccc23)C1 | > 99.5 µM
O=C(Nc1ncnc2c(C(=O)NC3(c4ccccc4F)CCCCC3)csc12)NC1CC1 | > 99.5 µM
Cc1ccc2c(c1)C[C@@H](C(=O)N(C)CC[C@@H](Nc1ncnc3[nH]ccc13)C(C)C)S2 | > 99.5 µM
O=C(OCc1cccc(Cl)n1)c1ncnc2[nH]ccc12 | > 124 µM
O=C(Nc1cnc2[nH]ncc2c1)C1CCN(c2ccc3nncn3n2)CC1 | > 124 µM
COc1cccc(CSC[C@@H](NC(=O)c2ncnc3[nH]ccc23)C(=O)O)c1 | > 99.5 µM
CC(C)[C@@H](Nc1ncnc2[nH]ccc12)c1nc2ccccc2[nH]1 | 96.6 µM
CC(=O)c1ccc(S(=O)(=O)Nc2cnc3[nH]ccc3c2)cc1 | > 99.5 µM
CS(=O)(=O)NC1CCC(Nc2ccc([C@@H](CC(=O)O)NC(=O)c3ncnc4[nH]ccc34)cc2)CC1 (stereo partly specified) | 73.7 µM and 86 µM
FC(F)(F)CO[C@@H]1CCCN(c2ncnc3[nH]ccc23)C1 | > 124 µM
O=C(O)c1cn(CCNC(=O)c2ncnc3[nH]ccc23)cn1 | > 99.5 µM
Cc1[nH]c2ncnc(NCc3ccco3)c2c1C | > 99.5 µM
O=C(c1c[nH]c(=O)cn1)N1CCC(c2ccn3ncc(C(=O)N4CCCCC4)c3c2)CC1 | 78.4 µM
CS(=O)(=O)NC1CCC(Nc2ccc([C@@H](CC(=O)O)NC(=O)c3c[nH]c4ncncc34)cc2)CC1 (stereo partly specified) | > 99.5 µM
O=C(OCc1ncccc1Cl)c1ncnc2[nH]ccc12 | > 99.5 µM
O=C(N[C@@H](C(=O)O)C1Cc2ccccc2C1)c1ncnc2[nH]ccc12 | > 99.5 µM
O=C(c1ncc[nH]1)N1CCC(c2ccn3ncc(C(=O)N4CCCCC4)c3c2)CC1 | > 99.5 µM
Cc1[nH]c2ncnc(NC(=O)c3ncn(-c4ccccc4)n3)c2c1C | > 99.5 µM
Brc1ccc(-n2nnnc2Sc2ncnc3[nH]ccc23)cc1 | > 124 µM
Cc1nc(C)c(CC(=O)Nc2cnc3[nH]ncc3c2)c(=O)[nH]1 | > 99.5 µM
Cc1ccc2snc(C(=O)N(C)CC[C@@H](Nc3ncnc4[nH]ccc34)C(C)C)c2c1 | > 99.5 µM

Compound | IC50
O=C(O)c1sccc1C(=O)N1CCC(c2ccn3ncc(C(=O)N4CCCCC4)c3c2)CC1 | 38 µM
CC(C)[C@H]1N(c2ncnc3[nH]ccc23)CC12CCOCC2 | > 99.5 µM
Cc1ncnc2c1C[C@@H](C(=O)N(C)CC[C@@H](Nc1ncnc3[nH]ccc13)C(C)C)CC2 | > 99.5 µM
O=C(c1cn2ncccc2n1)N1CCC(c2ccn3ncc(C(=O)N4CCCCC4)c3c2)CC1 | > 99.5 µM
Cc1[nH]c2ncnc(NC(=O)[C@@H]3CCO[C@@H]3C)c2c1C | 122 µM
C[C@@H](CO)Nc1ncnc2[nH]c(C(=O)OC(C)(C)C)cc12 | > 124 µM
Cc1nc2ccc(C(=O)N(C)CC[C@@H](Nc3ncnc4[nH]ccc34)C(C)C)cc2s1 | > 99.5 µM
Cn1cc([C@@H](Nc2ncnc3[nH]ccc23)c2ccc(F)cc2)cn1 | > 99.5 µM
O=C(NCc1cc2n(n1)CCCC2)c1cc2cncnc2[nH]1 | > 124 µM
C[C@@H](Cc1ccc(Cl)s1)Nc1ccc([C@@H](CC(=O)O)NC(=O)c2ncnc3[nH]ccc23)cc1 | 46.5 µM and 46.7 µM
O=S(=O)(Cc1ccc(F)cc1)Nc1cnc2[nH]ccc2c1 | > 99.5 µM
O=C(N[C@@H](CCO)c1ccccc1F)c1ncnc2[nH]ccc12 | > 99.5 µM
O=C(N[C@@H](C(=O)O)c1ccc2c(c1)CCO2)c1ncnc2[nH]ccc12 | 78.4 µM and 74.6 µM
O=C(Nc1ccccc1)Nc1ccc(C(=O)NC2c3cccc(O)c3CC2C(=O)O)cc1 (stereo unspecified) | 1.02 µM and 1.06 µM and 650 nM and 440 nM (3×) and 535 nM and 555 nM and 628 nM and 598 nM and 632 nM (2×) and 644 nM and 653 nM (2×) and 470 nM and 462 nM and 430 nM and 474 nM and 540 nM and 599 nM and 592 nM and 435 nM and 316 nM and 338 nM and 701 nM and 439 nM and 411 nM and 374 nM (2×) and 353 nM (2×) and 447 nM and 847 nM and 925 nM and 461 nM and 794 nM and 731 nM and 432 nM and 1.1 µM and 317 nM and 406 nM and 649 nM and 516 nM and 384 nM and 402 nM and 289 nM and 506 nM and 262 nM and 224 nM
Cc1cccc(C)c1-n1nnnc1CSc1ncnc2[nH]cnc12 | > 99.5 µM
CO[C@@H]1CCCN(C(=O)c2cnn3ccc(C4CCN(C(=O)c5ccccc5)CC4)cc23)C1 | > 99.5 µM
CC(C)[C@@H]1C(=O)NCCN1c1ncnc2[nH]ccc12 | 35.3 µM
CC(C)[C@@H](Nc1ncnc2[nH]ccc12)C(N)=O | 30.7 µM
CC(C)(NC(=O)c1ncnc2[nH]ccc12)c1cc(C(=O)O)[nH]n1 | > 99.5 µM
N#CCc1cccc(S(=O)(=O)Nc2cnc3[nH]ccc3c2)c1 | > 99.5 µM
O=C(O)c1ccc(C(=O)N2CCC(c3ccn4ncc(C(=O)N5CCCCC5)c4c3)CC2)o1 | 68.1 µM
C=CCn1c(Sc2ncnc3[nH]ccc23)nc2sccc2c1=O | > 99.5 µM
O=C(NCc1ccccc1F)c1ncnc2[nH]ccc12 | > 99.5 µM
O=C(N[C@H]1CCC[C@H]1C(=O)O)c1cnn2ccc(C3CCN(C(=O)c4ccccc4)CC3)cc12 | 35.8 µM
CC[C@@H]1C[C@@H](C(=O)Nc2ncnc3[nH]c(C)c(C)c23)CCO1 | > 124 µM
CCc1cnn(C)c1NC(=O)c1ncnc2[nH]ccc12 | > 99.5 µM

Compound | IC50
CC(C)[C@@H](CCN(C)C(=O)c1cccc2cc(F)ccc12)Nc1ncnc2[nH]ccc12 | > 99.5 µM
Cc1nccc(C(=O)N2CCC(c3ccn4ncc(C(=O)N5CCCCC5)c4c3)CC2)n1 | > 99.5 µM
CC(C)OCCNC(=O)c1cc2c(=O)n3ccccc3nc2n1C | > 124 µM
Cc1csc(NC(=O)CSC[C@@H](NC(=O)c2ncnc3[nH]ccc23)C(=O)O)n1 | > 99.5 µM
O=C(Nc1ccc(C(=O)NCc2c(C(=O)O)[nH]c3ccccc23)cc1)NC1CC1 | 13.6 µM
NS(=O)(=O)c1ccccc1CNc1ncnc2[nH]ccc12 | > 124 µM
Cc1n[nH]c(C)c1C(=O)N1CCC(c2ccn3ncc(C(=O)N4CCCCC4)c3c2)CC1 | > 99.5 µM
O=C(c1nnn[nH]1)N1CCC(c2ccn3ncc(C(=O)N4CCCCC4)c3c2)CC1 | 28.3 µM
O=C(c1cnc[nH]1)N1CCC(c2ccn3ncc(C(=O)N4CCCCC4)c3c2)CC1 | > 99.5 µM
c1ccc(-c2cc(CNc3ncnc4[nH]ccc34)on2)cc1 | > 124 µM
C[C@H]1C[C@H]1c1nnc(Nc2ccc([C@@H](CC(=O)O)NC(=O)c3ncnc4[nH]ccc34)cc2)o1 | 7.86 µM and 6.04 µM
O=C(CCN(Cc1cccc(Cl)c1)C(=O)c1ccc(F)cn1)N1CCNCC1 | > 99.5 µM
O=C(c1cccnc1S)N1CCC(c2ccn3ncc(C(=O)N4CCCCC4)c3c2)CC1 | 61.6 µM
O=C(c1cc(O)ccn1)N1CCC(c2ccn3ncc(C(=O)N4CCCCC4)c3c2)CC1 | > 99.5 µM
O=C(Nc1ncnc2c(C(=O)Nc3ccccc3C(=O)N3CCCC3)csc12)NC1CC1 | > 99.5 µM
O=C(N[C@@H]1CCC[C@@H]1C(=O)O)c1cnn2ccc(C3CCN(C(=O)c4ccc(Cl)cc4)CC3)cc12 | 32.5 µM and 24.5 µM
NC(=O)c1ccc(S(=O)(=O)Nc2cnc3[nH]ccc3c2)cc1 | > 99.5 µM
CC(C)[C@@H](CCN(C)C(=O)c1cc2nccnc2cc1F)Nc1ncnc2[nH]ccc12 | > 99.5 µM
O=C(O)c1cn(CCCNC(=O)c2ncnc3[nH]ccc23)nn1 | > 99.5 µM
OC[C@@H](Nc1ncnc2[nH]c(I)cc12)c1ccccc1 | > 124 µM
COc1ccc2c(c1)CCN(c1ncnc3[nH]ccc13)[C@H]2C(C)C | 14.2 µM and 12 µM
CC(C)[C@@H](Nc1ncnc2[nH]ccc12)c1cccs1 | 14.9 µM
Cn1cc([C@@H](Nc2ncnc3[nH]ccc23)C2CCC2)cn1 | 15 µM
Cc1cc(NCc2cnc3c(c2)NC(=O)CO3)cnc1C | > 124 µM
Cc1[nH]c2ncnc(NC(=O)C3CC(C(F)(F)F)C3)c2c1C (stereo unspecified) | > 99.5 µM
Cc1n[nH]nc1C(=O)N1CCC(c2ccn3ncc(C(=O)N4CCCCC4)c3c2)CC1 | > 99.5 µM

Compound | IC50
COc1ccccc1C[C@@H](Nc1ncnc2[nH]ccc12)C(C)C | 97.5 µM
O=C(O)c1ccsc1C(=O)N1CCC(c2ccn3ncc(C(=O)N4CCCCC4)c3c2)CC1 | 58.9 µM
O=C(NCc1ccc(F)cn1)c1ncnc2[nH]ccc12 | > 99.5 µM
CC(C)[C@@H](Nc1ncnc2[nH]ccc12)C(F)F | 15.2 µM
Cc1nc(C(=O)N2CCC(c3ccn4ncc(C(=O)N5CCCCC5)c4c3)CC2)c(=O)[nH]c1C | > 99.5 µM
c1cc(-c2nnc(Sc3ncnc4[nH]ccc34)[nH]2)ccn1 | > 124 µM
CC(C)c1c[nH]nc1NC(=O)c1ccc(NC(=O)Nc2ccccc2)cc1 | > 99.5 µM
CC(C)[C@@H](Nc1ncnc2n[nH]cc12)c1cnn(C)c1 | 43.1 µM
CC(C)(C)n1cc([C@H]2N(c3ncnc4[nH]ccc34)CC23CCOCC3)cn1 | > 99.5 µM
CCc1coc(Nc2ccc([C@@H](CC(=O)O)NC(=O)c3c[nH]c4ncncc34)cc2)n1 | 70.9 µM and 76.1 µM
O=C(c1cccc(Br)c1)N1CCC(c2ccn3ncc(C(=O)N4CCCCC4)c3c2)CC1 | > 124 µM
Cn1nc(C(=O)O)cc1C(=O)N1CCC(c2ccn3ncc(C(=O)N4CCCCC4)c3c2)CC1 | > 99.5 µM
Cn1nc(C(=O)N2CCC(c3ccn4ncc(C(=O)N5CCCCC5)c4c3)CC2)cc1C(=O)O | 66.4 µM
Cc1ccc(-c2n[nH]cc2CNc2cnc3[nH]ncc3c2)o1 | > 124 µM
Cn1ncc2c(NCc3ncccc3O)ncnc21 | > 124 µM
O=C(c1ccccc1)N1CCC(c2ccn3ncc(C(=O)N4CCCC[C@H](O)C4)c3c2)CC1 | > 99.5 µM
CC(=O)Nc1ccc(S(=O)(=O)NNc2ncnc3sccc23)cc1 | > 99.5 µM
CC(C)[C@@H](CCN(C)C(=O)c1nn(C)c2ccc(F)cc12)Nc1ncnc2[nH]ccc12 | > 99.5 µM
O=C(O)[C@H]1CCCCCN1C(=O)c1ncnc2[nH]ccc12 | > 124 µM
Cc1[nH]c2ncnc(NC(=O)CCc3ccccc3)c2c1C | > 99.5 µM
CN(C)C(=O)c1cccc(S(=O)(=O)Nc2cnc3[nH]ccc3c2)c1 | > 99.5 µM
CC(C)[C@@H](CN1CCCCC1)Nc1ncnc2[nH]ccc12 | > 99.5 µM
C[C@H]1C[C@H]1c1nnc(Nc2ccc([C@@H](CC(=O)O)NC(=O)c3c[nH]c4ncncc34)cc2)o1 | 85.2 µM and 97 µM
